Consider 1 molecule from patent US12577522B2, “System and method for screening therapeutic agents” (Carnegie Mellon University, priority 2020, dated 2026).

The test system of series [1] is MDA-MB-231 human breast cancer cell line mouse xenografts (tumor fragments). As to the kind of experiment: 2D 96-well plate control: tumor fragment drug screening, live/dead viability and COMPUSYN combination index. The series is classed as cell-based. Particulars: 2D 96-well control, three days, drug refreshed every 12 h.
For series [2] the test system is unchanged. As to the kind of experiment: 3D ECM microsystem (collagen tumor-on-a-chip): tumor fragment drug screening, live/dead viability and COMPUSYN combination index. It counts as cell-based. Particulars: three days.
Series [3] in a line: Drug gradient characterization in 3D collagen scaffold by confocal microscopy. Particulars: confocal fluorescence; doxorubicin after 24 h, left to right channel. It counts as physicochemical.
Another series concerns MDA-MB-231 cell. Particulars: previously reported; cited from earlier work.

As for `COc1cccc2c1C(=O)c1c(O)c3c(c(O)c1C2=O)C[C@@](O)(C(=O)CO)C[C@@H]3O[C@H]1C[C@H](N)[C@H](O)[C@H](C)O1` [doxorubicin], the “tumor viability (live/dead staining)” value is “dose-dependent decrease in viability” in series [1] and “dose-dependent decrease in viability” in series [2] (3D ECM microsystem, drug replenished every 12 h). Also, the “viability in 3D ECM microsystem relative to 2D controls” value in series [2] (doses in 2D matched to 48 h simulated concentration) was “lower viability compared to 2D controls”. Also, in series [3], the “diffusion profile in 3D collagen scaffold” value is “approximately linear concentration profile”. In the series with MDA-MB-231 cell, the “median effect dose (Dm)” value is listed as “much lower than 4-hydroxycyclophosphamide”.
